Values of other authors, collected in patent US20090312281A1, “PROCESS FOR THE PREPARATION OF A PULVERULENT COMPOSITION AND PRODUCT AS OBTAINED” (INNOV'IA, priority 2006, published 2009).

| SMILES | Solubility in water at 60° C. (% weight/weight) |
| --- | --- |
| OC[C@H]1O[C@@](CO)(O[C@H]2O[C@H](CO)[C@@H](O)[C@H](O)[C@H]2O)[C@@H](O)[C@@H]1O [Sucrose] | 71 % weight/weight |
| O=C(CO)[C@@H](O)[C@H](O)[C@H](O)CO [Fructose] | 89 % weight/weight |
